In patent EP0023575A1, “Benzene sulfonyl semicarbazides, their preparation and use, pharmaceutical formulations containing them and their preparation” (HOECHST AKTIENGESELLSCHAFT, priority 1979, dated 1981):

Tested on: normal ernährte Kaninchen
Experiment: Blood sugar lowering in normally fed rabbits after oral administration (autoanalyzer)
Assay type: in vivo
Description: Die blutzuckersenkende Wirkung der beschriebenen Benzolsulfonylsemicarbazide kann dadurch festgestellt werden, daß man sie als freie Verbindung oder in Form der Natriumsalze an normal ernährte Kaninchen verfüttert und den Blutzuckerwert nach der bekannten Methode von Hagedorn-Jensen oder mit einem Autoanalyzer über eine längere Zeitdauer ermittelt.
Die routinemäßige Bestimmung der blutzuckersenkenden Wirkung kann mit Dosierungen von z.B. 10,2 oder 0,4 mg Wirksubstanz pro kg Versuchstier nach bekannten Methoden erfolgen.
4-(4-<2-(1-Oxo-isoindolin-2-carboxamido)-äthyl> -benzolsulfonyl)-1,1-hexamethylen-semicarbazid wurde in einer Dosierung von 0,4 mg/kg Kaninchen verabreicht und die Blutzuckerwerte wurden mit einem Autoanalyzer über eine längere Zeitdauer ermittelt. Die hierbei gemessene Blutzuckersenkung ist in der nachfolgenden Tabelle in % nach.... Stunden angegeben. In der Tabelle ist ferner die Blutzuckersenkung in % angegeben, die nach p.o. Verabreichung von 0,08 mg/kg Kaninchen beobachtet wurde.

O=C(NN1CCCCCC1)NS(=O)(=O)c1ccc(CCNC(=O)N2Cc3ccccc3C2=O)cc1 [4-(4-<2-(1-Oxo-isoindolin-2-carboxamido)-äthyl> -benzolsulfonyl)-1,1-hexamethylen-semicarbazid]
Blutzuckersenkung an Kaninchen in % (0,4 mg/kg p.o., after 1 hour): 26% | Blutzuckersenkung an Kaninchen in % (0,4 mg/kg p.o., after 3 hours): 31% | Blutzuckersenkung an Kaninchen in % (0,4 mg/kg p.o., after 5 hours): 43% | Blutzuckersenkung an Kaninchen in % (0,4 mg/kg p.o., after 24 hours): 37% | Blutzuckersenkung an Kaninchen in % (0,4 mg/kg p.o., after 48 hours): 0% | Blutzuckersenkung an Kaninchen in % (0,08 mg/kg p.o., after 1 hour): 11% | Blutzuckersenkung an Kaninchen in % (0,08 mg/kg p.o., after 3 hours): 22% | Blutzuckersenkung an Kaninchen in % (0,08 mg/kg p.o., after 5 hours): 33%
